Assay results: article PMC10013835 (Proceedings of the National Academy of Sciences of the …, 2023)
Positions count from the first letter of the chain named. Where two headings read alike, the source gives them in different places.

How the values were obtained:
W299A mutant PXR = biological target: T1, W299A mutant PXR (Homo sapiens, UniProt O75469, W299A); details: 293T cells, 24 h, Fig. 6
T1 sequence (O75469 1-434 W299A): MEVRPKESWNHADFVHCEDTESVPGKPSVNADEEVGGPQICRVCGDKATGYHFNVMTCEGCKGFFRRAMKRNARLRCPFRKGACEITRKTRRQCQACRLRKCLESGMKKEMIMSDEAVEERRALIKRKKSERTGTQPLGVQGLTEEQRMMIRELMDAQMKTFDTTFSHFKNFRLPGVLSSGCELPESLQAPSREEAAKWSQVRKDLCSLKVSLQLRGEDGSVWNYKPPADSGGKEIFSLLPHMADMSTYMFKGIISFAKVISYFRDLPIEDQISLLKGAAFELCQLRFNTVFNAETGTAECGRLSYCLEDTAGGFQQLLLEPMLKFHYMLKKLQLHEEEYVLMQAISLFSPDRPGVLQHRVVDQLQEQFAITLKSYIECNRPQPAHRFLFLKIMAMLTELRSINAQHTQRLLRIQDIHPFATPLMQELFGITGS

PXR LBD [1] = biological target: T2, PXR LBD (Homo sapiens, UniProt O75469)
T2 sequence (O75469 146-433 limits assumed): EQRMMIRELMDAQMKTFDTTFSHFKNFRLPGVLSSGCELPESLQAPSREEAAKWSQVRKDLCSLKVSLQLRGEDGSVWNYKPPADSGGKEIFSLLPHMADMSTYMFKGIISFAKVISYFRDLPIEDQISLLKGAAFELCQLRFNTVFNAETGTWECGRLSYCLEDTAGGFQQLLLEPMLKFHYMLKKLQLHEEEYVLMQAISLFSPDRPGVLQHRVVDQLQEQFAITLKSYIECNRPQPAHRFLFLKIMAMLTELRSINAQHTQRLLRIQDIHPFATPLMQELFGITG

PXR LBD [2] = biological target: T2, PXR LBD; assay: biochemical; details: PXR LBD binding [IC50 ± SD (µM)]
PXR = biological target: T3, PXR (Homo sapiens, UniProt O75469); format: cell-based; details: WT PXR-transfected 293T cells, 24 h, Fig. 5
T3 sequence (O75469 1-434): T1 sequence (O75469 1-434 W299A) with A299W

reporter activity for W299A PXR versus WT, in words (W299A mutant PXR) | Group (PXR LBD binding affinity group) (PXR LBD [1]; human, pH 7.5) | IC50 (PXR LBD [2]) [µM] | cellular PXR activity (luciferase reporter), in words (PXR) | FC, fold change, compound's IC50 divided by that of rifampicin (PXR LBD [1]; PXR LBD binding, relative to rifampicin) | Group (PXR LBD binding affinity group) (PXR LBD [1]; grouping relative to rifampicin affinity) | IC50 (PXR LBD [2]; TR-FRET, GST-PXR LBD, rifampicin analog series) [µM] | SMILES
changed very little | 1 | 11.8 ± 4.4 |  |  |  |  | CO[C@H]1/C=C/O[C@@]2(C)Oc3c(C)c(O)c4c(c3C2=O)C2=NC3(CCN(CC(C)C)CC3)NC2=C(NC(=O)/C(C)=C\C=C\[C@H](C)[C@H](O)[C@@H](C)[C@@H](O)[C@@H](C)[C@H](OC(C)=O)[C@@H]1C)C4=O [Rifabutin]
nearly completely inactive | 2 | 0.054 ± 0.014 | marginally better than rifampicin |  |  |  | CO[C@H]1/C=C/O[C@@]2(C)Oc3c(C)c(O)c4c(c3C2=O)C(=O)C=C(NC(=O)/C(C)=C\C=C\[C@H](C)[C@H](O)[C@@H](C)[C@@H](O)[C@@H](C)[C@H](OC(C)=O)[C@@H]1C)C4=O [Rifamycin S]
 | 2 | 0.067 ± 0.009 | marginally better than rifampicin |  |  |  | CO[C@H]1/C=C/O[C@@]2(C)Oc3c(C)c(O)c4c(O)c(cc(O)c4c3C2=O)NC(=O)/C(C)=C\C=C\[C@H](C)[C@H](O)[C@@H](C)[C@@H](O)[C@@H](C)[C@H](OC(C)=O)[C@@H]1C [Rifamycin]
 |  |  |  | 4.2 | 1 | 11.4 ± 3.3 | CO[C@H]1/C=C/O[C@@]2(C)Oc3c(C)c(O)c4c(O)c(c5c(nc6cc(C)ccn65)c4c3C2=O)NC(=O)/C(C)=C\C=C\[C@H](C)[C@H](O)[C@@H](C)[C@@H](O)[C@@H](C)[C@H](OC(C)=O)[C@@H]1C [Rifaximin]
